Results taken from US6197963A, “Non-peptide peptidomimetics” (The Trustees of the University of Pennsylvania, priority 1998, dated 2001).
Like-named read-outs stand apart in the source and are kept apart here. Values belong to the molecule of their own block, whether it stands above or below them. Where a SMILES comes first, the peptide text is derived from it.

Legend:
[1] = system: SRIF receptor; assay: Displacement of 125I-CGP-23996 from SRIF receptor on AtT-20 cells (Example 13); type: binding, mouse; details: for IC50: displacement of 125I-CGP-23996, AtT-20 cells (Example 13), read-out: IC50
[2] = molecular target: T1, human neurokinin-1 receptor (NK1R) (Homo sapiens, UniProt P25103); assay: Displacement of 125I-substance P from human NK1R expressed in COS cells (Example 12); type: binding; details: for IC50: 125I-substance P, COS cells (Example 12)
T1 construct: expressed in transfected cells; host or cells: COS cells
T1 sequence (P25103 whole entry): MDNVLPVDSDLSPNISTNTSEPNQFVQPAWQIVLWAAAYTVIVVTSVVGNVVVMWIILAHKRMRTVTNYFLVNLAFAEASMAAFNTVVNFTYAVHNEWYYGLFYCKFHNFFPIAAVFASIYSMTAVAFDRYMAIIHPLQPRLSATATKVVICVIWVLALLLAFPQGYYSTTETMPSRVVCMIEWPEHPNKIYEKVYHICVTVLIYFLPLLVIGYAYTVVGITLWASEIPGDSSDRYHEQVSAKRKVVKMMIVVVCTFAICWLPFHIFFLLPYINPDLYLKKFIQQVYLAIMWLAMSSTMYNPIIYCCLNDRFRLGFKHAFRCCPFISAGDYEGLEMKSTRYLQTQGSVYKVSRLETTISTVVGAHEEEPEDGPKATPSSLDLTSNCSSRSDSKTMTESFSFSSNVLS
Protocol: The affinity of a variety of compounds for the substance P receptor was determined employing the following procedure.
To express the cloned human neurokinin-1 receptor (NK1R) transiently in COS, the cDNA for the human NK1R was cloned into the expression vector pCDM9 which was derived from pCDM8 (Invitrogen) by inserting the ampicillin resistance gene (nucleotide 1973 to 2964 from Bluescript SK+) into the Sac II site. Transfection of 20 μg of the plasmid DNA into 10 million COS cells was achieved by electroporation in 800 μl of the transfection buffer ([…], 1.2 mM MgCl2, 2.4 mM K2 HPO4, 0.6 mM KH2PO4, […], 10 mM HEPES pH 7.4) at 260 V and 950 μF using the IBI Genezapper (IBI, New Haven, Conn.). The cells were incubated in 10% fetal calf serum, 2 mM glutamine, 100 U/ml penicillin-streptomycin, and 90% DMEM media (Gibco, Grand Island, N.Y.) in 5% CO2 at 37° C. for three days before the binding assay.
The binding assay of human NK1R expressed in COS cells is based on the use of ^125 I-substance P (^125 I-SP, from DuPont, Boston, Mass.) as a radioactively labeled ligand which competes with unlabeled substance P or any other ligand for binding to the human NK1R. Monolayer cell cultures of COS were dissociated by the non-enzymatic solution (Specialty Media, Lavallette, N.J.) and resuspended in appropriate volume of the bind buffer (50 mM Tris pH 7.5, 5 mM MnCl2, 150 mM NaCl, 0.04 mg/ml bacitracin, 0.004 mg/ml leupeptin, 0.2 mg/ml BSA, 0.01 mM phosphoramidon) such that 200 μl of the cell suspension would give rise to about 10,000 cpm of specific ^125 I-SP binding (approximately 50,000 to 200,000 cells). In the binding assay, 200 μl of cells were added to a tube containing 20 μl of 1.5 to 2.5 nM of ^125 I-SP and 20 μl of unlabeled substance P or any other test compound. The tubes were incubated at 4° C. or at room temperature for 1 hour with gentle shaking. The bound radioactivity was separated from unbound radioactivity by GF/C filter (Brandel, Gaithersburg, Md.) which was pre-wetted with 0.1 polyethylenimine. The filter was washed with 3 ml of wash buffer (50 Tris pH 7.5, 5 mM MnCl2, 150 mM NaCl) three times and its radioactivity was determined by gamma counter.
A variety of compounds were tested according to the COS cell procedure. The concentration of compound required to inhibit the binding of substance P to the human neurokinin-1 receptor by 50% was measured.

[3] = system: SRIF receptors on AtT-20 cells; assay: Binding at SRIF receptors of AtT-20 cells (Examples 104-110, Tables 1-3); parameters: species or system mouse
[4] = system: SRIF receptors on AtT-20 cells; details: cited from earlier work; for affinity for the SRIF receptor: relative to O-linked isomers or other glycosides; for IC50: read-out: IC50 at somatostatin receptors of AtT-20 cells, Nicolaou and Hirschmann, ESCOM 1990
[5] = molecular target: hSSTR3 (Homo sapiens, UniProt P32745); assay: Binding at human SRIF receptor subtype hSSTR3; details: TABLE 3; read-out: hSSTR 3 Ki
hSSTR3, sequence (P32745 whole entry): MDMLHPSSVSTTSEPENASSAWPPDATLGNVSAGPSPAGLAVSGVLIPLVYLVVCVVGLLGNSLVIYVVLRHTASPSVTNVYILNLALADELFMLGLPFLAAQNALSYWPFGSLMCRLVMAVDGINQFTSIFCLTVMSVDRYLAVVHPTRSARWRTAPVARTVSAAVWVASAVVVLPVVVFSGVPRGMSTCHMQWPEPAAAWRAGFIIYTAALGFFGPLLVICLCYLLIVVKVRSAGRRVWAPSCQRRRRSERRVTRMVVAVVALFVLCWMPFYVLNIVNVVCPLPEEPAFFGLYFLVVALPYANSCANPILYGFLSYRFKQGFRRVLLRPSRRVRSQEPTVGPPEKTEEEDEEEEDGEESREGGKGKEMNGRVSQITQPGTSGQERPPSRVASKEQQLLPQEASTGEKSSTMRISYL

[6] = molecular target: hSSTR4 (Homo sapiens, UniProt P31391); assay: Binding at human SRIF receptor subtype hSSTR4; details: TABLE 3; read-out: hSSTR 4 Ki
hSSTR4, sequence (P31391 whole entry): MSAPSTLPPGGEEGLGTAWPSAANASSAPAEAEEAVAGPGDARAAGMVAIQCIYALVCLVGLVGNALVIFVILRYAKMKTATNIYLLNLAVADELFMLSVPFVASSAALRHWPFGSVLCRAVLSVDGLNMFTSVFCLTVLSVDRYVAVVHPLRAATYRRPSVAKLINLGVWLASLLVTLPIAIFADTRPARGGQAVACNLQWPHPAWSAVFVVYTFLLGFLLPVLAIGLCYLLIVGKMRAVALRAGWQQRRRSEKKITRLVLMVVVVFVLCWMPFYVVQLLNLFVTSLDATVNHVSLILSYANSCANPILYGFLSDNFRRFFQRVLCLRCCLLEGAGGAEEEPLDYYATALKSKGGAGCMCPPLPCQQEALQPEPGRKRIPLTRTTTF

[7] = system: five hSSTRs; assay: Profile / average over the five human SRIF receptor subtypes; type: binding
[8] = molecular target: T2, NK-1 receptor (Homo sapiens, UniProt P25103); assay: Binding at the NK-1 receptor (Examples 109-110)
T2 sequence (P25103 whole entry): as the sequence (P25103 whole entry) above

[9] = system: β2-adrenergic receptor; details: cited from earlier work
[10] = molecular target: T2, NK-1 receptor; details: cited from earlier work
[11] = system: β2-adrenergic receptor; assay: Binding at the β2-adrenergic receptor; details: among some sixty-five receptors
[12] = system: some sixty-five other receptors; assay: Binding at some sixty-five other receptors
[13] = molecular target: hSSTR1 (Homo sapiens, UniProt P30872); assay: Binding at human SRIF receptor subtype hSSTR1; details: TABLE 3; read-out: hSSTR 1 Ki
hSSTR1, sequence (P30872 whole entry): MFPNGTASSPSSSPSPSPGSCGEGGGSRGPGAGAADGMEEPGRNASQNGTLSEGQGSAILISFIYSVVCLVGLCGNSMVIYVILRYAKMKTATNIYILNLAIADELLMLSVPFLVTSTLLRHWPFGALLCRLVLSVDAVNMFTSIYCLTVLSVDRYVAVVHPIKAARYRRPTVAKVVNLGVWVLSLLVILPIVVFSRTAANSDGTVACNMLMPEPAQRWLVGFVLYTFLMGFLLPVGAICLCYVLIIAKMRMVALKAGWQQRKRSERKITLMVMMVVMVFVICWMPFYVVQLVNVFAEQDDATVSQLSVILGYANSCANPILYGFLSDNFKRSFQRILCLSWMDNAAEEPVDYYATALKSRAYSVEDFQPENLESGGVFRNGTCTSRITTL

[14] = molecular target: hSSTR2 (Homo sapiens, UniProt P30874); assay: Binding at human SRIF receptor subtype hSSTR2; details: TABLE 3; read-out: hSSTR 2 Ki
hSSTR2, sequence (P30874 whole entry): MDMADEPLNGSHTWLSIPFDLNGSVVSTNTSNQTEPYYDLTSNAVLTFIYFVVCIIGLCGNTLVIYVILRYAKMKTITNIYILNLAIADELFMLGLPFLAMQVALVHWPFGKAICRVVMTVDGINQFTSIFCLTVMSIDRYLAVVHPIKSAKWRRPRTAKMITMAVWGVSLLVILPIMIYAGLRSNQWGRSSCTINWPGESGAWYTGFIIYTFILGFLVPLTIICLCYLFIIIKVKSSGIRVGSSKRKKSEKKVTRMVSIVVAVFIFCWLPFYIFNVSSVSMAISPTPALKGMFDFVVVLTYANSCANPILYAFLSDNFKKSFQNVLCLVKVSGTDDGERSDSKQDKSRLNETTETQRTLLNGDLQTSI

[15] = molecular target: hSSTR5 (Homo sapiens, UniProt P35346); assay: Binding at human SRIF receptor subtype hSSTR5; details: TABLE 3; read-out: hSSTR 5 Ki
hSSTR5, sequence (P35346 whole entry): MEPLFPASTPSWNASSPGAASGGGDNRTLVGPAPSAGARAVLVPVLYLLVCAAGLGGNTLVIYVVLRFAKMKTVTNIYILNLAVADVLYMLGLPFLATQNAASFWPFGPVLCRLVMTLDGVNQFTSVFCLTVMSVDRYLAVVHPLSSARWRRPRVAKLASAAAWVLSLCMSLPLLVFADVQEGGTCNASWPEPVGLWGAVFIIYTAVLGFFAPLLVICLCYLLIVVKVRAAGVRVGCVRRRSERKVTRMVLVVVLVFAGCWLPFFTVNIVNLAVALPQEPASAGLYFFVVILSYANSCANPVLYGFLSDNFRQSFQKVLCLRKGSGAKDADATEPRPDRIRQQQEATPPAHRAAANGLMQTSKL

[16] = molecular target: SRIF receptor; details: radioligand 125I-CGP-23996; read-out: IC50 when 125I-CGP-23996 was the radioligand; cited from earlier work
[17] = system: SRIF receptors present on AtT-20 cells; details: radioligand 125I-Tyr11-SRIF; read-out: IC50 against 125I-Tyr11-SRIF; cited from earlier work
[18] = system: β-Adrenergic receptor; assay: Displacement of 125I-CYP from β-adrenergic receptor, AtT-20; type: binding, mouse
[19] = TABLE 2 (Example 106), read-out: AtT-20 cells IC50

Molecule: OCCCCCNC[C@H]1O[C@@H](OCCc2c[nH]c3ccccc23)[C@H](OCc2ccccc2)[C@@H](OCc2ccccc2)[C@@H]1OCc1ccccc1 [III-4e, 2-(1H-Indol-3-yl)ethyl 2,3,4-Tri-O-benzyl-6-amino-6-deoxy-6-N-(5-hydroxypentyl)-β-D-glucopyranoside]
IC50 [1]: 9500 nM
IC50 [2]: 120 nM
IC50 [3, 19]: 14000 nM
affinity for the SRIF receptor [4]: about the same as those of III-4a and III-5b

Molecule: NCCCCCOC[C@H]1O[C@@H](OCCc2c[nH]c3ccccc23)[C@H](OCc2ccccc2)[C@@H](OCc2ccccc2)[C@@H]1OCc1ccccc1 [III-4a, 2-(1H-Indol-3-yl)ethyl 2,3,4-Tri-O-benzyl-6-O-(5-aminopentyl)-β-D-glucopyranoside]
Ki [5]: 2800 nM
Ki [6]: 1100 nM
hSSTR subtype affinity profile [7]: high affinities for hSSTR2 and hSSTR4 and a low affinity for SSTR1
binding of the NK-1 receptor [8]: did not bind
IC50 ([8]; read-out: affinity at the NK-1 receptor): 150 nM
IC50 [4]: ~15000 nM
binding / antagonism at the β2-adrenergic receptor [9]: bind the β2 -adrenergic receptor as antagonists
binding / antagonism at the NK-1 receptor [10]: potent antagonist ligands

Molecule: CC(=O)NCCCCCOC[C@H]1O[C@@H](OCCc2c[nH]c3ccccc23)[C@H](OCc2ccccc2)[C@@H](OCc2ccccc2)[C@@H]1OCc1ccccc1 [III-4d]
IC50 [2]: 56 nM
activity / affinity at SRIF receptors of AtT-20 cells [3]: inactive
binding of the SRIF receptors ([3]; among some sixty-five receptors): did not bind
binding of the β2-adrenergic receptors [11]: did not bind
binding of some sixty-five other receptors [12]: did not bind some sixty-five other receptors

Molecule: somatostatin [SRIF, reference compound]
IC50 [1]: 9.3 nM
hSSTR subtype affinity profile [7]: decreases in the order SSTR2>>SSTR1>SSTR3>SSTR4 and SSTR5
IC50 [16]: 9.3 nM
IC50 [4]: ~9.3 nM
binding / antagonism at the β2-adrenergic receptor [9]: do not bind
binding / antagonism at the NK-1 receptor [10]: do not bind
IC50 [17]: 0.83 nM

More lines, main results first:

IC50 ([3]; TABLE 1 (Example 105), read-out: AtT-20 cells 50 IC): 8400 nM
IC50 ([3]; TABLE 3 (Example 108), read-out: AtT-20 IC50): 8400 nM
Ki [13]: 4100 nM
Ki [14]: 3100 nM
Ki [5]: 3300 nM
Ki [6]: 1700 nM
Ki [15]: 5100 nM
Molecule: NCCCCCOC[C@H]1O[C@@H](OCCc2c[nH]c3ccccc23)[C@H](OCc2ccccc2)C[C@@H]1OCc1ccccc1 [III-5a, 2-(1H-Indol-3-yl)ethyl 2,4-Di-O-benzyl-3-deoxy-6-O-(5-aminopentyl)-β-D-glucopyranoside]
hSSTR subtype affinity profile [7]: high affinities for hSSTR2 and hSSTR4 and a low affinity for SSTR1
IC50 [4]: ~10000 nM
binding / antagonism at the β2-adrenergic receptor [9]: bind the β2 -adrenergic receptor as antagonists
binding / antagonism at the NK-1 receptor [10]: potent antagonist ligands

IC50 [1]: 18.7 nM
Molecule: C[C@@H](O)[C@@H]1NC(=O)[C@H](CCCCN)NC(=O)[C@@H](Cc2c[nH]c3ccccc23)NC(=O)[C@H](Cc2ccccc2)NC(=O)[C@@H]2CCCN2C(=O)[C@H](Cc2ccccc2)NC1=O [L-363,301, reference compound] (HELM PEPTIDE1{P.F.[dW].K.T.F}$PEPTIDE1,PEPTIDE1,1:R1-6:R2$$$V2.0)
binding / antagonism at the β2-adrenergic receptor [9]: do not bind
binding / antagonism at the NK-1 receptor [10]: do not bind

IC50 [1]: 1300 nM
IC50 [2]: 180 nM
IC50 [3, 19]: 5100 nM
Molecule: OCCCCCNC[C@H]1O[C@@H](OCCc2c[nH]c3ccccc23)[C@H](OCc2ccccc2)C[C@@H]1OCc1ccccc1 [III-5c, 2-(1H-Indol-3-yl)ethyl 2,4-Di-O-benzyl-3,6-dideoxy-6-amino-6-N-(5-hydroxypentyl)-β-D-glucopyranoside]
affinity for the SRIF receptor [4]: about the same as those of III-4a and III-5b

IC50 [1]: 40000 nM
IC50 [2]: 400 nM
binding of the β-adrenergic receptor [18]: does not bind the β-adrenergic receptor
Inhibition ([18]; 125I-CYP (0.1 nM), AtT-20): 0%
Molecule: CO[C@@H]1O[C@H](COCCCCCN)[C@@H](OCc2ccccc2)[C@H](OCc2ccccc2)[C@H]1OCc1ccccc1 [Methyl 6-O-(5-aminopentyl)-2,3,4-tri-O-benzyl-β-D-glucopyranoside]
binding by the SRIF receptor [1]: is bound by the substance P and SRIF receptors
binding by the substance P receptor [2]: is bound by the substance P and SRIF receptors
